According to patent US9580449B2, “Compositions and methods for the production of pyrimidine and pyridine compounds with BTK inhibitory activity” (Merck Patent GmbH, priority 2011, dated 2017):

Assays:
NZB/W F1 mice = assay: Interferon-alpha accelerated systemic lupus erythematosus (SLE) mouse model; assay type: in vivo; conditions: oral, daily from day 14, 0.1, 0.3, 1, or 3 mg/kg; NZB/W F1 mice with ADV-IFN-α
Protocol: 1-(4-(((6-amino-5-(4-phenoxyphenyl)pyrimidin-4-yl)amino)methyl)piperidin-1-yl)prop-2-en-1-one, designated as “CPD. B”, was evaluated in an interferon-alpha accelerated SLE mouse model. NZB/W F1 mice received i.v. injection at day 0 and day 1 of 10^8 infectious units of adenovirus (ADV-IFN-α) to deliver a transient overexpression on interferon alpha. Oral dosing of the different group treatments was initiated on day 14 and continued daily at 24 hour intervals until the end of the study. Treatment groups consisted of 20% Kleptose HPB in Na-citrate buffer (vehicle) or 0.1, 0.3, 1, or 3 mg/kg of Cpd. […] As shown in Panel 1B Cpd. […] FIG. 2 presents data from another interferon-alpha accelerated SLE experiment in mice. NZB/W F1 mice received i.v. injections at day 0 and day 1 of 10^8 infectious units of adenovirus (ADV-IFN-α) to deliver a transient overexpression on interferon alpha. Oral dosing of the different group treatments (n=10) was initiated on day 14 and continued daily at 24 hour intervals until the end of the study. Treatment groups consisted of 20% Kleptose HPB in Na-citrate buffer (vehicle), 0.1, 0.3, 1, or 3 mg/kg of Cpd. B or Cell Cept®. […] Statistical analysis was performed using Two way ANOVA with Bonferroni post test with all groups compared to vehicle treated group (*=p<0.05, **=p<0.01, ***=p<0.001).

full-length human BTK = full-length human BTK (Homo sapiens (Human), UniProt Q06187); assay: BTK IC50 enzyme assay (microfluidic off-chip mobility shift kinase assay); assay type: biochemical; conditions: incubated for 90 min. at 27 C; read-out: Time Dependent BTK Enzyme Assay IC50
Procedure, shortened: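 Off-chip microfluidic mobility shift assay on full-length human BTK; substrate-to-product conversion measured by charge/mass separation of phosphorylated peptide after reaction stop.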

BTK = BTK (Homo sapiens (Human), UniProt Q06187); assay: Time Dependent Human Whole Blood IC50 assay; assay type: cell-based; conditions: human whole blood; read-out: Time Dependent Human Whole Blood BTK Enzyme Assay IC50
Protocol: Compounds described by embodiments of the present invention were assayed using a human whole blood assay. The data from the same is recorded in Table 2 within the column labeled: “Time Dependent Human Whole Blood BTK Enzyme Assay IC50”.

PBMC = assay: Time Dependent PBMC IC50 assay; assay type: cell-based
Protocol: Compounds described by embodiments of the present invention were assayed using a time dependent PMBC assay.

BTK, sequence (Q06187 whole entry): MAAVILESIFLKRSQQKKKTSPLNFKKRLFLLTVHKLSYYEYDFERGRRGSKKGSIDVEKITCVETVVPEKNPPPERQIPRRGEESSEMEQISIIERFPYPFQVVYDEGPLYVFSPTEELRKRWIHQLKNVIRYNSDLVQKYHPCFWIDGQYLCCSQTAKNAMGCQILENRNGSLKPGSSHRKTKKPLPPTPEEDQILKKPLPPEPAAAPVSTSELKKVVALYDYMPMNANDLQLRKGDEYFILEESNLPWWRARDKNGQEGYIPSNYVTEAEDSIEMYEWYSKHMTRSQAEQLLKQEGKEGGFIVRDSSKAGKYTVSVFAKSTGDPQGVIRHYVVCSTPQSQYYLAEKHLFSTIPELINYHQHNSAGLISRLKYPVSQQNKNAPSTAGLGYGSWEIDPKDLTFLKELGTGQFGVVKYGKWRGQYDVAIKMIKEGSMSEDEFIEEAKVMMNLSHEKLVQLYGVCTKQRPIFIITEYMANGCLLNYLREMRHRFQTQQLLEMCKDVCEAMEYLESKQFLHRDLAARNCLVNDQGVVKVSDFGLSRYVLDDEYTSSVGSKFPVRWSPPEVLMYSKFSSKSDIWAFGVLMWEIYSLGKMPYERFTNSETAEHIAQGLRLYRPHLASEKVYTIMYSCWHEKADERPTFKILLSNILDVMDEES
full-length human BTK, sequence (Q06187 whole entry): as above

| Structure (SMILES) | disease activity (NZB/W F1 mice) | IC50 (full-length human BTK) [nM] | IC50 (BTK) [nM] | IC50 (PBMC) [nM] |
| --- | --- | --- | --- | --- |
| C=CC(=O)N1CCC(CNc2ncnc(N)c2-c2ccc(Oc3ccccc3)cc2)CC1 [Cpd. B, 1-(4-(((6-amino-5-(4-phenoxyphenyl)pyrimidin-4-yl)amino)methyl)piperidin-1-yl)prop-2-en-1-one] | reduces the disease activity in a dose-dependent manner | – | – | – |
| C=CC(=O)Nc1cc(Oc2ncnc(N)c2-c2ccc(Oc3ccccc3)cc2)c(F)cc1F [A251, N-(5-((6-amino-5-(4-phenoxyphenyl)pyrimidin-4-yl)oxy)-2,4-difluorophenyl)acrylamide] | – | < 100 | < 1000 | < 1000 |
| C=CC(=O)Nc1cccc(Oc2ncnc(N)c2-c2cnn(Cc3ccccc3)c2)c1 [A172, N-(3-((6-amino-5-(1-benzyl-1H-pyrazol-4-yl)pyrimidin-4-yl)oxy)phenyl)acrylamide] | – | < 100 | < 1000 | < 1000 |
